Data published in article PMC12263422, “Cryo-EM structure of the human THIK-1 K2P K^+ channel reveals a lower Y gate regulated by lipids and anesthetics” (Nature Structural & Molecular Biology, 2025).
“And” between values parts separate entries of the source, which are not always exact repeats. Identical values can stand only once. Like-named read-outs stand apart in the source and are kept apart here.

Columns and labels:
Assay type in all cases: cell-based
THIK-1 R258A = molecular target: T1, THIK-1 R258A (Homo sapiens, UniProt Q9HB14, R258A); assay: Inside-out excised patch recordings, oocytes, THIK-1 R258A mutant (lipid activation); conditions: read-out: Linoleic acid EC50
T1 construct: expressed in transfected cells; host or cells: Xenopus oocytes (mRNA injection)
Text: Supplement 41594_2025_1497_MOESM2_ESM.xlsx, sheet "ExtData_Fig_S5f" | column: Linoleic acid EC50 (µM); R258A

THIK-1 S109A = molecular target: T2, THIK-1 S109A (Homo sapiens, UniProt Q9HB14, S109A); assay: Inside-out excised patch recordings, oocytes, THIK-1 S109A mutant (lipid activation); conditions: read-out: Linoleic acid EC50
T2 construct: expressed in transfected cells; host or cells: Xenopus oocytes (mRNA injection)
Text: Supplement 41594_2025_1497_MOESM2_ESM.xlsx, sheet "ExtData_Fig_S5f" | column: Linoleic acid EC50 (µM); S109A

THIK-1 F262A = molecular target: T3, THIK-1 F262A (Homo sapiens, UniProt Q9HB14, F262A); assay: Inside-out excised patch recordings, oocytes, THIK-1 F262A mutant (lipid activation); conditions: for EC50: Linoleic acid EC50, THIK-1 F262A; for Normalized currents / Fold activation with 30.0 µM linoleic acid: THIK-1 F262A
T3 construct: expressed in transfected cells; host or cells: Xenopus oocytes (mRNA injection)
T3 sequence (Q9HB14 1-408 F262A): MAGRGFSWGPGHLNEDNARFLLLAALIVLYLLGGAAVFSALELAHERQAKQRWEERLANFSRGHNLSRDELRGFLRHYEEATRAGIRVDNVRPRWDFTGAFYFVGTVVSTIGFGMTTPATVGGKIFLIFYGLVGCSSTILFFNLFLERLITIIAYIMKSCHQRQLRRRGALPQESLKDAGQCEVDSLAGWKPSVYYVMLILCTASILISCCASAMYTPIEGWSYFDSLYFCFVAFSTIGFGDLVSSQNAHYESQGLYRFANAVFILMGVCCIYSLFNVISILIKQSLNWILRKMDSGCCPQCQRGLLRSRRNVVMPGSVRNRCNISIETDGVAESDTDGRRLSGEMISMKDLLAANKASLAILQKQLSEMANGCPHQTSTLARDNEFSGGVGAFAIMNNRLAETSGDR
Text: Human K2P13.1 THIK-1 (GenBank accession number: NM_022054) and human K2P12.1 THIK-2 (NM_022055.1) were used in this study. For functional expression studies, the respective K^+ channel subtype coding sequences were subcloned into the oocyte expression vector pSGEM or the dual-purpose expression vector pFAW[41] and verified by sequencing. All mutant channels were obtained by site-directed mutagenesis and verified by sequencing. To increase surface expression and macroscopic currents, measurements of THIK-2 channels used a mutated ER retention motif, (R11A R12A R14A R15A R16A; THIK-2*)[20]. Vector DNA was linearized with NheI or MluI, and mRNA was synthesized in vitro using the SP6 or T7 AmpliCap Max High Yield Message Maker Kit (Cellscript, USA) or HiScribe T7 ARCA mRNA Kit (New England Biolabs).
Two-electrode voltage–clamp (TEVC) studies were performed in Xenopus oocytes. All animal use conformed to the Guide for the Care and Use of Laboratory Animals (NIH Publication 85–23), and all experiments using Xenopus toads were approved by the local ethics panels. Oocytes were stored at 17 °C in ND96 recording solution composed of (in mM): 96 NaCl, 2 KCl, 1.8 CaCl2, 1 MgCl2, 5 HEPES (pH 7.5 adjusted with NaOH and HCl), supplemented with Na-pyruvate (275 mg L^–1), theophylline (90 mg L^–1) and gentamicin (50 mg L^–1). Oocytes were injected with 1 ng mRNA for WT or mutant channels, and were incubated for 24–48 h at 17 °C. Two-electrode voltage clamp recordings were then performed as previously described[42],[43]. For macroscopic patch–clamp measurements, oocytes were obtained as described above incubated at 17 °C in a solution containing (mM): 54 NaCl, 30 KCl, 2.4 NaHCO3, 0.82 MgSO4 ×7 H2O, 0.41 CaCl2, 0.33 Ca(NO3)2 ×4 H2O and 7.5 TRIS (pH 7.4 adjusted with NaOH and HCl) for 1–4 days before use. Excised patch recordings in inside-out configuration conditions were performed at room temperature. Patch pipettes were made from thick-walled borosilicate glass GB 200TF-8P (Science Products), had resistances of 0.2–0.5 MΩ (tip diameter, 10–25 µm) and filled with a pipette solution (in mM): 120 KCl, 10 HEPES and 3.6 CaCl2 (pH 7.4 adjusted with KOH and HCl). Intracellular bath solutions and compounds were applied to the cytoplasmic side of excised patches for the various K^+ channels through a gravity flow multi-barrel pipette system. The intracellular solution had the following composition (in mM): 120 KCl, 10 HEPES, 2 EGTA and 1 pyrophosphate (pH adjusted with KOH and HCl). Currents were recorded with an EPC10 amplifier (HEKA Electronics) and sampled at 10 kHz or higher, with filtering set to 3 kHz (–3 dB) or higher, as appropriate for sampling rate. For measurements of GPCR activation, whole-cell currents were recorded for THIK-1 in transiently transfected HEK-293 cells. Cells were stimulated by a ramp protocol between −100 and +60 mV (holding potential, −80 mV). The pipette solution was composed of (in mM): 140 KCl, 2 MgCl2, 1 CaCl2, 2.5 EGTA and 10 HEPES (pH 7.3 adjusted with KOH and HCl). The extracellular bath solution had the following composition (in mM): 135 NaCl, 5 KCl, 2 MgCl2, 2 CaCl2, 10 glucose and 10 HEPES pH (pH 7.3 adjusted with NaOH and HCl). Oxotremorine M (Oxo-M) was added to extracellular bath solution to obtain the final concentration. Single-channel currents were recorded with an Axopatch 200B amplifier through a Digidata 1440A digitizer (Molecular Devices). Data were filtered at 2 kHz and recorded at a 200-kHz sampling rate with the program Clampex (Molecular Devices). Pipette solution and bath solution for cell-attached recordings contained (in mM): 140 KCl, 2 MgCl2, 1 CaCl2 and 10 HEPES (pH 7.4 adjusted with KOH and HCl). For inside-out recordings, the bath solution contained (in mM): 140 KCl, 2 MgCl2, 1 CaCl2 and 10 HEPES (pH 7.2 adjusted with KOH and HCl). All experiments were conducted at room temperature. […]

THIK-1 F142A = molecular target: T4, THIK-1 F142A (Homo sapiens, UniProt Q9HB14, F142A); assay: Inside-out excised patch recordings, oocytes, THIK-1 F142A mutant; conditions: read-out: TPenA IC50
T4 construct: expressed in transfected cells; host or cells: Xenopus oocytes (mRNA injection)
Text: Supplement 41594_2025_1497_MOESM2_ESM.xlsx, sheet "ExtData_Fig_S2c" | column: Normalized currents

T1 sequence (Q9HB14 whole entry R258A): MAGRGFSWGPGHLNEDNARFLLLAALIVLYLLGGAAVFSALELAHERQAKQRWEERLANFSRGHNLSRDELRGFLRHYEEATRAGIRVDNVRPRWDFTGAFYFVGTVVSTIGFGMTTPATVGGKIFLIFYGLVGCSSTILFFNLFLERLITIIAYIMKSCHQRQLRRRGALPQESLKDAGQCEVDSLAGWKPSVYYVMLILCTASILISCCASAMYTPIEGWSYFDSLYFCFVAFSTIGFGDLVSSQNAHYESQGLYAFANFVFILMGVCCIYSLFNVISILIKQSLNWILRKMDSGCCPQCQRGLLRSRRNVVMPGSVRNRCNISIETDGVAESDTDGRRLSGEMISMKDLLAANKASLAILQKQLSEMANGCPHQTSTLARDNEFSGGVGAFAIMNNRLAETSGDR
T4 sequence (Q9HB14 whole entry F142A): as the sequence (Q9HB14 whole entry R258A) above, with F142A, A258R counted along it
T2 sequence (Q9HB14 whole entry S109A): as the sequence (Q9HB14 whole entry R258A) above, with S109A, A258R counted along it

EC50 (THIK-1 R258A; individual recordings) | EC50 (THIK-1 R258A; mean) | EC50 (THIK-1 S109A; individual recordings) | EC50 (THIK-1 S109A; mean) | EC50 (THIK-1 F262A; individual recordings) | EC50 (THIK-1 F262A; mean) | Normalized currents (THIK-1 F262A; 1 µM linoleic acid) | Normalized currents (THIK-1 F262A; 10 µM linoleic acid) | Normalized currents (THIK-1 F262A; 30 µM linoleic acid) | Normalized currents (THIK-1 F262A; 50 µM linoleic acid) | Normalized currents (THIK-1 F262A; 100 µM linoleic acid) | Normalized currents (THIK-1 F262A; 150 µM linoleic acid) | Normalized currents (THIK-1 F262A; 200 µM linoleic acid) | Fold activation with 30.0 µM linoleic acid (THIK-1 F262A; mean) | Structure (SMILES) | Fold activation with 30.0 µM linoleic acid (THIK-1 F262A; individual recordings) | IC50 (THIK-1 F142A; individual recordings) | IC50 (THIK-1 F142A; mean)
24.9 µM and 30.3 µM and 69.4 µM and 74.3 µM and 47.4 µM and 62.2 µM and 21.9 µM and 23.3 µM and 47.9 µM and 30 µM | 43.2 µM | 47.5 µM and 45.3 µM and 76.4 µM and 21.1 µM and 36.6 µM and 51 µM and 47.6 µM and 129 µM | 56.8 µM | 48.7 µM and 50.7 µM and 292 µM and 208 µM and 91.3 µM and 64.3 µM and 43.4 µM and 58.4 µM | 107 µM | 0.94 | 1.46 | 1.58 | 2.39 | 3.02 | 3.33 | 3.40 | 1.57 | CCCCC/C=C\C/C=C\CCCCCCCC(=O)O [linoleic acid] | 1.770 and 1.480 and 1.860 and 1.430 and 1.420 and 1.440 | – | –
– | – | – | – | – | – | – | – | – | – | – | – | – | – | CCCCC[N+](CCCCC)(CCCCC)CCCCC [TPenA, tetrapentylammonium] | – | 239 µM and 187 µM and 498 µM and 367 µM | 323 µM
